Source: patent US20080051315A1 (priority 2003, published 2008)

Experiments:
GRPR = GRPR (Mus musculus, UniProt P21729); type: cell-based
[1] = system: pyramidal neurons in slices from GRPR knockout mice; type: cell-based, mouse
GABAA receptors = assay: block of sIPSCs in pyramidal neurons of the lateral amygdala; type: cell-based, mouse; details: picrotoxin 50 uM; n=10; holding potential -70 mV
Protocol: Amygdala slices (250-300 um) were prepared from 3-5 week old control and GRPR knockout mice (littermates) with a vibratome. Slices were continuously superfused in solution containing (in mM): 119 NaCl, 2.5 KCl, 2.5 CaCl2,1.0 MgSO4, 1.25 NaH2PO4, 26.0 NaHCO3, 10 glucose, and equilibrated with 95% O2 and 5% CO2 [pH 7.3-7.4] at room temperature. Whole-cell recordings of evoked compound EPSCs or spontaneous GABA-mediated IPSCs were obtained from pyramidal cells in the lateral amygdala under visual guidance (DIG/ infrared optics) with an EPC-9 amplifier and Pulse v8.09 software (HEKA Elektronik). […] Series resistance was monitored throughout experiment and was in a range of […]. […] The EPSC amplitudes were measured as the difference between the mean current during a prestimulus baseline and the mean current over a 2 ms-window at the peak of the response. […]
The spontaneous IPSCs were recorded on videotape for off line analysis in the presence of 20 uM CNQX. Data were analyzed with the Mini Analysis Program v5.2.4 (Synaptosoft Inc., Decatur, Ga.; Bolshakov et al., 2000).
We recorded spontaneous inhibitory postsynaptic currents (sIPSCs) in the pyramidal neurons having blocked the AM PA (a-amino-3-hydroxy-5-methyl-4-isoxazolepropionic acid) receptor-mediated responses (FIG. 2) with CNQX (6-cyano-7-nitroquinoxaline-2,3-dione, 20 uM).

GRPR, sequence (P21729 whole entry): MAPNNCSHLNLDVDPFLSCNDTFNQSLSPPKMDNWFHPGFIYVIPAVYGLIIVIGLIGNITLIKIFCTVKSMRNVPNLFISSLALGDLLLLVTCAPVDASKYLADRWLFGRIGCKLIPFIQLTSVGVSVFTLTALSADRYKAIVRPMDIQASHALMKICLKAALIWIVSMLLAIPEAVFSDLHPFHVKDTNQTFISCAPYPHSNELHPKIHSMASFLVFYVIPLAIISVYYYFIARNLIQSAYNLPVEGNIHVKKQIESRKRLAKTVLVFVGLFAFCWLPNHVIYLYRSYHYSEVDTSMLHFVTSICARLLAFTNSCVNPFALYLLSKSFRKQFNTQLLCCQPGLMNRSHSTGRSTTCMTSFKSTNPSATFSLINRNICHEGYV

NC1=N[C@H](O)[C@H]2[C@H]3O[C@]4(O)O[C@@H]([C@@H](O)[C@@]2(N1)[C@@H]4O)[C@]3(O)CO [TTX, tetrodotoxin]
effect of GRP on frequency of sIPSCs in the presence of TTX (GRPR): blocking the effects of the agonist

gastrin-releasing peptide [GRP]
effect of GRP on frequency of sIPSCs (in words) [1]: failed to increase | frequency of sIPSCs [1]: 5.64±0.67 Hz

picrotoxin
block of sIPSCs (GABAA receptors): completely blocked
